Source: PMC9698773, “Design, Synthesis, Molecular Modeling, and Anticancer Evaluation of New VEGFR-2 Inhibitors Based on the Indolin-2-One Scaffold” (Pharmaceuticals, 2022)
“And” between values parts separate entries of the source, which are not always exact repeats. Identical values can stand only once.

Tested on: Bcl-2
Assay: Bcl-2 expression assay (Western blot)
Format: cell-based, human
Conditions: HepG2, 1.13 µM, 24 h
Experimental: The expression of BAX and Bcl-2 were evaluated in the HepG2 cells after treatment with 1.13 µM of compound 17a for 24 h. The Western blotting technique was utilized to determine the levels of Bax and Bcl-2 proteins and estimate the Bax/Bcl-2 ratio.
The expression of apoptotic BAX and antiapoptotic Bcl-2 proteins in the liver HepG2 cells treated with 1.13 μM of 17a was determined using Western blot analysis, as described in the Supplementary Materials. […]
Casp3 F: 5ʹ‐ […] ‐3ʹ
Casp3 R: 5ʹ‐ […] ‐3ʹ […]
β‐actin F: 5ʹ‐[…]‐3ʹ […]
β‐actin R: 5ʹ‐[…]‐3ʹ […]
4.2.6. Bax and Bcl‐2 expression assay
The expression of BAX and Bcl‐2 proteins were determined using Western blot anal‐ ysis. In brief, HepG2 cells were treated with control or with the synthesized compound 17a (1.13 μM). […] Total protein concentrations in the supernatant were colorimetrically determined using the Pierce 660 nm Protein Assay method (Thermo Fisher Scientific, Rockford, IL), with BSA as the stand‐ ard. […] Means of the detected blot intensities were then quantified, analyzed by the combined Bio‐Rad Image Lab soft‐ ware and their corresponding background subtracted, with normalization to the corre‐ sponding bands density of β‐actin as the sampling loading control. […]

`O=C1Nc2ccccc2C1=Nc1ccc(C(=O)NNC(=S)Nc2ccccc2)cc1` [Compound 17a, 2-(4-((2-Oxoindolin-3-ylidene)amino)benzoyl)-N-phenylhydrazinecarbothioamide] was tested, and the “decrease of Bcl-2 expression versus control” value was 1.88 fold and 1.9 fold and the “Protein Expression (Normalized to β-Actin) Bcl-2” value (control 0.432) was 0.229.
